Laboratory results taken from US20150141381A1, “TETRACYCLINE COMPOUNDS HAVING TARGET THERAPEUTIC ACTIVITIES” (Paratek Pharmaceuticals, Inc., priority 2001, published 2015).
Like-named read-outs stand apart in the source and are kept apart here.

How the values were obtained:
[1] = tested on: E. coli mL308 225; test: In Vitro Anti-Bacterial Activity Assay (MIC), gram negative; assay type: cell-based; conditions: Escherichia coli, ML308225, 18 h, read-out: Antibiotic Activity Gram − (MIC)
[2] = tested on: S. aureus RN450; test: In Vitro Anti-Bacterial Activity Assay (MIC), gram positive; assay type: cell-based; conditions: Staphylococcus aureus, RN450, 18 h, gram positive bacteria; read-out: Antibiotic Activity Gram + (MIC)

SMILES | MIC ([1]; gram negative bacteria) [µg/mL] | MIC [2] [µg/mL] | MIC [1] [µg/mL]
C#Cc1cc(CNC(=O)N2CCOCC2)c2c(c1O)C(=O)C1=C(O)[C@]3(O)C(=O)C(C(N)=O)=C(O)[C@@H](N(C)C)[C@@H]3C[C@@H]1C2 | > 4 | > 4 | 
CN(C)c1cc(CNC(N)=O)c(O)c2c1C[C@H]1C[C@H]3[C@H](N(C)C)C(O)=C(C(N)=O)C(=O)[C@@]3(O)C(O)=C1C2=O | > 4 | > 4 | 
CN(C)c1cc(CNCC2CC2)c(O)c2c1C[C@H]1C[C@H]3[C@H](N(C)C)C(O)=C(C(N)=O)C(=O)[C@@]3(O)C(O)=C1C2=O | > 4 | < 4 | 
Cc1noc(C)c1S(=O)(=O)NCc1cc(N(C)C)c2c(c1O)C(=O)C1=C(O)[C@]3(O)C(=O)C(C(N)=O)=C(O)[C@@H](N(C)C)[C@@H]3C[C@@H]1C2 | > 4 | < 4 | 
CONCc1ccc(-c2cc(N(C)C)c3c(c2O)C(=O)C2=C(O)[C@]4(O)C(=O)C(C(N)=O)=C(O)[C@@H](N(C)C)[C@@H]4C[C@@H]2C3)[nH]1 | < 4 | < 4 | 
CN(C)c1cc(Cn2ccc(C=O)c2)c(O)c2c1C[C@H]1C[C@H]3[C@H](N(C)C)C(O)=C(C(N)=O)C(=O)[C@@]3(O)C(O)=C1C2=O | > 4 | < 4 | 
CCc1cc(CNC(=O)N2CCOCC2)c2c(c1O)C(=O)C1=C(O)[C@]3(O)C(=O)C(C(N)=O)=C(O)[C@@H](N(C)C)[C@@H]3C[C@@H]1C2 | > 4 | > 4 | 
COC(=O)c1ccc2c(c1O)C(=O)C1=C(O)[C@]3(O)C(=O)C(C(N)=O)=C(O)[C@@H](N(C)C)[C@@H]3[C@@H](O)[C@@H]1[C@H]2C | > 4 | > 4 | 
CN(C)c1cc(C(=O)N2CCOCC2)c(O)c2c1C[C@H]1C[C@H]3[C@H](N(C)C)C(O)=C(C(N)=O)C(=O)[C@@]3(O)C(O)=C1C2=O | > 4 | > 4 | 
CN(C)c1cc(CNC(=O)[C@@H]2CCCN2C)c(O)c2c1C[C@H]1C[C@H]3[C@H](N(C)C)C(O)=C(C(N)=O)C(=O)[C@@]3(O)C(O)=C1C2=O | > 4 | < 4 | 
C[C@H]1c2ccc(CN3CCCCC3)c(O)c2C(=O)C2=C(O)[C@]3(O)C(=O)C(C(N)=O)=C(O)[C@@H](N(C)C)[C@@H]3[C@@H](O)[C@@H]21 | < 4 | < 4 | 
CN(C)c1cc(NCc2cc(F)cc(F)c2)c(O)c2c1C[C@H]1C[C@H]3[C@H](N(C)C)C(O)=C(C(N)=O)C(=O)[C@@]3(O)C(O)=C1C2=O | > 4 | > 4 | 
CCCCOC(=O)c1ccc(O)c2c1C[C@H]1C[C@H]3[C@H](N(C)C)C(O)=C(C(N)=O)C(=O)[C@@]3(O)C(O)=C1C2=O | < 4 | < 4 | 
CN(C)c1cc(NCc2ccc(C#N)cc2)c(O)c2c1C[C@H]1C[C@H]3[C@H](N(C)C)C(O)=C(C(N)=O)C(=O)[C@@]3(O)C(O)=C1C2=O | > 4 | > 4 | 
COc1ccc(CNCCF)cc1-c1ccc(O)c2c1C[C@H]1C[C@H]3[C@H](N(C)C)C(O)=C(C(N)=O)C(=O)[C@@]3(O)C(O)=C1C2=O |  | < 4 | > 4
CN(C)c1cc(CNC(=O)C(C)(C)C)c(O)c2c1C[C@H]1C[C@H]3[C@H](N(C)C)C(O)=C(C(N)=O)C(=O)[C@@]3(O)C(O)=C1C2=O | > 4 | < 4 | 
CC(=O)NCc1cc(N(C)C)c2c(c1O)C(=O)C1=C(O)[C@]3(O)C(=O)C(C(N)=O)=C(O)[C@@H](N(C)C)[C@@H]3C[C@@H]1C2 | > 4 | < 4 | 
CN(C)c1cc(CNc2nc(-c3ccc(F)cc3)co2)c(O)c2c1C[C@H]1C[C@H]3[C@H](N(C)C)C(O)=C(C(N)=O)C(=O)[C@@]3(O)C(O)=C1C2=O | > 4 | > 4 | 
CC(CF)Nc1ccc(-c2ccc(O)c3c2C[C@H]2C[C@H]4[C@H](N(C)C)C(O)=C(C(N)=O)C(=O)[C@@]4(O)C(O)=C2C3=O)cc1 (stereo partly shown) | > 4 | < 4 | 
CN(C)c1cc(CNc2nc(C(F)(F)F)co2)c(O)c2c1C[C@H]1C[C@H]3[C@H](N(C)C)C(O)=C(C(N)=O)C(=O)[C@@]3(O)C(O)=C1C2=O | < 4 | < 4 | 
CN(C)c1cc(CNCc2cc(F)c(F)c(F)c2)c(O)c2c1C[C@H]1C[C@H]3[C@H](N(C)C)C(O)=C(C(N)=O)C(=O)[C@@]3(O)C(O)=C1C2=O | < 4 | < 4 | 
CN(C)c1cc(CNCc2ccc(C#N)cc2)c(O)c2c1C[C@H]1C[C@H]3[C@H](N(C)C)C(O)=C(C(N)=O)C(=O)[C@@]3(O)C(O)=C1C2=O | > 4 | < 4 | 
CN(C)c1cc(CNC(CF)CF)c(O)c2c1C[C@H]1C[C@H]3[C@H](N(C)C)C(O)=C(C(N)=O)C(=O)[C@@]3(O)C(O)=C1C2=O |  | < 4 | > 4
CN(C)[C@@H]1C(O)=C(C(N)=O)C(=O)[C@@]2(O)C(O)=C3C(=O)c4c(O)ccc(-c5ccc(CNCCF)cc5)c4C[C@H]3C[C@@H]12 |  | < 4 | < 4

SMILES | MIC ([1]; gram negative bacteria) [µg/mL] | MIC [2] [µg/mL] | MIC [1] [µg/mL]
COc1ccc(CNc2cc(N(C)C)c3c(c2O)C(=O)C2=C(O)[C@]4(O)C(=O)C(C(N)=O)=C(O)[C@@H](N(C)C)[C@@H]4C[C@@H]2C3)cc1O | > 4 | > 4 | 
CN(C)[C@@H]1C(O)=C(C(N)=O)C(=O)[C@@]2(O)C(O)=C3C(=O)c4c(O)ccc(-c5ccc(CNc6ccccc6)cc5)c4C[C@H]3C[C@@H]12 | > 4 | < 4 | 
COc1ccc(CNCCC#N)cc1-c1ccc(O)c2c1C[C@H]1C[C@H]3[C@H](N(C)C)C(O)=C(C(N)=O)C(=O)[C@@]3(O)C(O)=C1C2=O | > 4 | < 4 | 
CN(C)[C@@H]1C(O)=C(C(N)=O)C(=O)[C@@]2(O)C(O)=C3C(=O)c4c(O)ccc(-c5ccc(CNC#N)cc5)c4C[C@H]3C[C@@H]12 | < 4 | < 4 | 
CN(C)c1cc(NCc2ccc(O)c(O)c2)c(O)c2c1C[C@H]1C[C@H]3[C@H](N(C)C)C(O)=C(C(N)=O)C(=O)[C@@]3(O)C(O)=C1C2=O | > 4 | < 4 | 
CN(C)c1cc(NCc2ccccc2OC(C)(C)C)c(O)c2c1C[C@H]1C[C@H]3[C@H](N(C)C)C(O)=C(C(N)=O)C(=O)[C@@]3(O)C(O)=C1C2=O | > 4 | < 4 | 
CN(C)[C@@H]1C(O)=C(C(N)=O)C(=O)[C@@]2(O)C(O)=C3C(=O)c4c(O)ccc(C(=O)CN5CCOCC5)c4C[C@H]3C[C@@H]12 | > 4 | < 4 | 
CN(C)c1cc(CN2CCOCC2)c(O)c2c1C[C@H]1C[C@H]3[C@H](N(C)C)C(O)=C(C(N)=O)C(=O)[C@@]3(O)C(O)=C1C2=O | > 4 | < 4 | 
CC(CF)NCc1ccc(O)c2c1C[C@H]1C[C@H]3[C@H](N(C)C)C(O)=C(C(N)=O)C(=O)[C@@]3(O)C(O)=C1C2=O (stereo partly shown) |  | < 4 | > 4
CN(C)[C@@H]1C(O)=C(C(N)=O)C(=O)[C@@]2(O)C(O)=C3C(=O)c4c(O)ccc(CNCc5ccc(F)cc5)c4C[C@H]3C[C@@H]12 | < 4 | < 4 | 
CC(C)CN(C=O)Cc1cc(N(C)C)c2c(c1O)C(=O)C1=C(O)[C@]3(O)C(=O)C(C(N)=O)=C(O)[C@@H](N(C)C)[C@@H]3C[C@@H]1C2 | > 4 | > 4 | 
CN(C)[C@@H]1C(O)=C(C(N)=O)C(=O)[C@@]2(O)C(O)=C3C(=O)c4c(O)ccc(-c5ccc(/C=N/CC#N)cc5)c4C[C@H]3C[C@@H]12 | > 4 | < 4 | 
CN(C)[C@@H]1C(O)=C(C(N)=O)C(=O)[C@@]2(O)C(O)=C3C(=O)c4c(O)ccc(-c5ccc(NC(=O)c6ccco6)cc5)c4C[C@H]3C[C@@H]12 | > 4 | < 4 | 
CN(C)[C@@H]1C(O)=C(C(N)=O)C(=O)[C@@]2(O)C(O)=C3C(=O)c4c(O)ccc(-c5cccc(NC(=O)c6ccno6)c5)c4C[C@H]3C[C@@H]12 | > 4 | < 4 | 
CC(=O)Nc1ccc(-c2ccc(O)c3c2C[C@H]2C[C@H]4[C@H](N(C)C)C(O)=C(C(N)=O)C(=O)[C@@]4(O)C(O)=C2C3=O)cc1 | > 4 | < 4 | 
COCC(=O)Nc1ccc(-c2ccc(O)c3c2C[C@H]2C[C@H]4[C@H](N(C)C)C(O)=C(C(N)=O)C(=O)[C@@]4(O)C(O)=C2C3=O)cc1 | < 4 | < 4 | 
CN(C)[C@@H]1C(O)=C(C(N)=O)C(=O)[C@@]2(O)C(O)=C3C(=O)c4c(O)ccc(-c5ccc(NC(=O)OCCF)cc5)c4C[C@H]3C[C@@H]12 | > 4 | < 4 | 
CN(C)[C@@H]1C(O)=C(C(N)=O)C(=O)[C@@]2(O)C(O)=C3C(=O)c4c(O)ccc(-c5ncccn5)c4C[C@H]3C[C@@H]12 | < 4 | < 4 | 
CN(C)c1cc(CNC(=O)CC(F)(F)F)c(O)c2c1C[C@H]1C[C@H]3[C@H](N(C)C)C(O)=C(C(N)=O)C(=O)[C@@]3(O)C(O)=C1C2=O | < 4 | < 4 | 
CN(C)c1cc(CNc2ccccc2)c(O)c2c1C[C@H]1C[C@H]3[C@H](N(C)C)C(O)=C(C(N)=O)C(=O)[C@@]3(O)C(O)=C1C2=O | > 4 | < 4 | 
CSCc1cc(I)c2c(c1O)C(=O)C1=C(O)[C@]3(O)C(=O)C(C(N)=O)=C(O)[C@@H](N(C)C)[C@@H]3C[C@@H]1C2 | < 4 | < 4 | 
COC(=O)C(=O)Nc1ccc(-c2ccc(O)c3c2C[C@H]2C[C@H]4[C@H](N(C)C)C(O)=C(C(N)=O)C(=O)[C@@]4(O)C(O)=C2C3=O)cc1 | > 4 | < 4 | 
CN(C)[C@@H]1C(O)=C(C(N)=O)C(=O)[C@@]2(O)C(O)=C3C(=O)c4c(O)ccc(C(=O)CN5CCCCC5)c4C[C@H]3C[C@@H]12 | < 4 | < 4 | 
